# In the supplement of paper PMC5579334:
# ± gives the standard deviation of the averaged measurements.
# Experiments:
# [1] = tested on: HSC1; assay: relative IC50 (inflection point of fitted dose-response curve, CellTox-Green cytotoxicity, 72 h; top asymptote may be below 50%); higher = less potent
# Method in brief: (§1)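 For 72 h at 37 °C, MPNST cell lines and primary human Schwann cells were exposed in 384-well plates to five 10-fold compound dilutions. CellTox-Green, added before seeding at a final 1:1000 dilution, gave fluorescence from DNA released by disrupted cells. Signals were scaled to vehicle and positive-control wells, cultures failing plate quality control were left out, and four-parameter logistic fits were applied. Relative IC50 and drug sensitivity score were derived from the fits, with IC50 censored at the top concentration.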
# [2] = tested on: HS-PSS; assay: as above
# Method in brief: as §1
# [3] = tested on: HSC2; assay: as above
# Method in brief: as §1
# [4] = tested on: ST8814; assay: as above
# Method in brief: as §1
# [5] = tested on: HSC1; assay: relative IC50 (inflection point of fitted dose-response curve, CellTiter-Glo viability, 72 h; top asymptote may be below 50% inhibition); higher = less potent
# Method in brief: (§2)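 MPNST cell lines and primary human Schwann cells were seeded at 750–1000 cells per well into 384-well plates preprinted with each compound at five concentrations in 10-fold steps, then incubated 72 h at 37 °C, 5% CO2. CellTiter-Glo ATP luminescence gave viability, scaled between vehicle and positive-control wells, with duplicates averaged where present. Curves were fitted with a four-parameter logistic model. Percent inhibition refers to the top concentration, while drug sensitivity score and relative IC50, censored at the top concentration, come from these fits.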
# [6] = tested on: HS-PSS; assay: as above
# Method in brief: as §2
# [7] = tested on: HSC2; assay: as above
# Method in brief: as §2
# [8] = tested on: YST-1; assay: as above
# Method in brief: as §2
# [9] = tested on: HS-Sch-2; assay: as above
# Method in brief: as §2
# [10] = tested on: ST8814; assay: as above
# Method in brief: as §2
# [11] = tested on: STS26T; assay: relative IC50 (inflection point of fitted dose-response curve, CellTox-Green cytotoxicity, 72 h; top asymptote may be below 50%); higher = less potent
# Method in brief: as §1
# [12] = tested on: STS26T; assay: relative IC50 (inflection point of fitted dose-response curve, CellTiter-Glo viability, 72 h; top asymptote may be below 50% inhibition); higher = less potent
# Method in brief: as §2
# [13] = tested on: S462; assay: as above
# Method in brief: as §2
# [14] = tested on: S1507-2; assay: drug sensitivity score (DSS, CellTox-Green cytotoxicity, 72 h) (DSS (dimensionless)); higher = more cytotoxic; extreme values may be limits of the assay
# Method in brief: as §1
# [15] = tested on: HSC2 (primary human Schwann cells); assay: as above
# Method in brief: as §1
# [16] = tested on: HS-PSS; assay: as above
# Method in brief: as §1
# [17] = tested on: HSC1 (primary human Schwann cells); assay: as above
# Method in brief: as §1
# [18] = tested on: STS26T; assay: as above
# Method in brief: as §1
# [19] = tested on: ST8814; assay: as above
# Method in brief: as §1
# [20] = tested on: S1507-2; assay: % inhibition of CellTiter-Glo viability at highest tested concentration (72 h), relative to DMSO and benzethonium chloride controls; higher = more inhibition
# Method in brief: as §2
# [21] = tested on: HSC2 (primary human Schwann cells); assay: as above
# Method in brief: as §2
# [22] = tested on: HS-PSS; assay: as above
# Method in brief: as §2
# [23] = tested on: HSC1 (primary human Schwann cells); assay: as above
# Method in brief: as §2
# [24] = tested on: YST-1; assay: as above
# Method in brief: as §2
# [25] = tested on: STS26T; assay: as above
# Method in brief: as §2
# [26] = tested on: HS-Sch-2; assay: as above
# Method in brief: as §2
# [27] = tested on: ST8814; assay: as above
# Method in brief: as §2
# [28] = tested on: S462; assay: as above
# Method in brief: as §2
# [29] = tested on: S1507-2; assay: drug sensitivity score (DSS, CellTiter-Glo viability, 72 h) (DSS (dimensionless)); higher = more sensitive; extreme values may be limits of the assay
# Method in brief: as §2
# [30] = tested on: HSC2 (primary human Schwann cells); assay: as above
# Method in brief: as §2
# [31] = tested on: HS-PSS; assay: as above
# Method in brief: as §2
# [32] = tested on: HSC1 (primary human Schwann cells); assay: as above
# Method in brief: as §2
# [33] = tested on: YST-1; assay: as above
# Method in brief: as §2
# [34] = tested on: STS26T; assay: as above
# Method in brief: as §2
# [35] = tested on: HS-Sch-2; assay: as above
# Method in brief: as §2
# [36] = tested on: ST8814; assay: as above
# Method in brief: as §2
# [37] = tested on: S462; assay: as above
# Method in brief: as §2
structure (smiles),measurement,setting,value
CN1CCC(COc2cnc(-c3cccc(Cn4nc(-c5cccc(C#N)c5)ccc4=O)c3)nc2)CC1,relative IC50,[1],> 1 µM
same,relative IC50,[2],> 1 µM
same,relative IC50,[3],> 1 µM
same,relative IC50,[4],> 1 µM
same,relative IC50,[5],> 1 µM
same,relative IC50,[6],> 1 µM
same,relative IC50,[7],> 1 µM
same,relative IC50,[8],> 1 µM
same,relative IC50,[9],> 1 µM
same,relative IC50,[10],> 1 µM
CCN(CC)CCNC(=O)c1c(C)[nH]c(/C=C2\C(=O)Nc3ccc(F)cc32)c1C [Sunitinib],relative IC50,[1],> 1 µM
same,relative IC50,[2],> 1 µM
same,relative IC50,[3],> 1 µM
same,relative IC50,[11],> 1 µM
same,relative IC50,[4],> 1 µM
same,relative IC50,[5],> 1 µM
same,relative IC50,[7],> 1 µM
same,relative IC50,[8],> 1 µM
same,relative IC50,[12],> 1 µM
same,relative IC50,[9],> 1 µM
Cc1cc(Nc2nc(N[C@@H](C)c3ncc(F)cn3)ncc2Cl)[nH]n1 [AZD1480],relative IC50,[1],> 1 µM
same,relative IC50,[2],> 1 µM
same,relative IC50,[4],> 1 µM
same,relative IC50,[5],0.193 µM
same,relative IC50,[9],> 1 µM
COc1cc(CCc2cc(NC(=O)c3ccc(N4CC(C)NC(C)C4)cc3)n[nH]2)cc(OC)c1 (centres undefined) [AZD4547],relative IC50,[1],> 1 µM
same,relative IC50,[2],> 1 µM
same,relative IC50,[3],> 1 µM
same,relative IC50,[11],> 1 µM
same,relative IC50,[4],> 1 µM
same,relative IC50,[6],> 1 µM
same,relative IC50,[8],> 1 µM
same,relative IC50,[12],> 1 µM
same,relative IC50,[9],0.253 µM
same,relative IC50,[10],> 1 µM
CO[C@H]1C[C@@H]2CC[C@@H](C)[C@@](O)(O2)C(=O)C(=O)N2CCCC[C@H]2C(=O)O[C@H]([C@H](C)C[C@@H]2CC[C@@H](O)[C@H](OC)C2)CC(=O)[C@H](C)/C=C(\C)[C@@H](O)[C@@H](OC)C(=O)[C@H](C)C[C@H](C)/C=C/C=C/C=C/1C [Sirolimus],relative IC50,[1],> 0.1 µM
same,relative IC50,[2],> 0.1 µM
same,relative IC50,[3],> 0.1 µM
same,relative IC50,[11],> 0.1 µM
same,relative IC50,[4],> 0.1 µM
same,relative IC50,[6],0.00371 µM
same,relative IC50,[8],0.00609 µM
same,relative IC50,[12],0.0217 µM
same,relative IC50,[9],0.00638 µM
same,relative IC50,[13],> 0.1 µM
CC1(C)CCC(CN2CCN(c3ccc(C(=O)NS(=O)(=O)c4ccc(NCC5CCOCC5)c([N+](=O)[O-])c4)c(Oc4cnc5[nH]ccc5c4)c3)CC2)=C(c2ccc(Cl)cc2)C1 [ABT-199],relative IC50,[1],> 10 µM
same,relative IC50,[3],> 10 µM
same,relative IC50,[11],> 10 µM
same,relative IC50,[12],> 10 µM
CCc1c(C(=O)C(N)=O)c2c(OCC(=O)O)cccc2n1Cc1ccccc1 [Varespladib],relative IC50,[1],> 10 µM
same,relative IC50,[2],> 10 µM
same,relative IC50,[3],> 10 µM
same,relative IC50,[11],> 10 µM
same,relative IC50,[4],> 10 µM
same,relative IC50,[6],> 10 µM
same,relative IC50,[7],> 10 µM
same,relative IC50,[8],> 10 µM
same,relative IC50,[12],> 10 µM
same,relative IC50,[9],> 10 µM
same,relative IC50,[10],> 10 µM
CC1=NN(c2ccc(C(=O)O)cc2)C(=O)C1=Cc1ccc(-c2cc(C)c(C)cc2[N+](=O)[O-])o1 [C646],relative IC50,[1],> 25 µM
same,relative IC50,[2],> 25 µM
same,relative IC50,[3],9.18 µM
same,relative IC50,[11],> 25 µM
same,relative IC50,[4],> 25 µM
same,relative IC50,[5],> 25 µM
same,relative IC50,[7],> 25 µM
same,relative IC50,[12],> 25 µM
same,relative IC50,[9],> 25 µM
same,relative IC50,[10],> 25 µM
CN1CCc2c(c3ccccc3n2Cc2ccc(C(=O)NO)cc2)C1 [Tubastatin A] (max concentration tested 10000 nM),drug sensitivity score,[14],0.928 ± 1.3
same,drug sensitivity score,[15],0
same,drug sensitivity score,[16],0
same,drug sensitivity score,[17],0
same,drug sensitivity score,[18],2.56
same,drug sensitivity score,[19],0
same,% inhibition,[20],52.1 ± 7.6%
same,% inhibition,[21],23.3%
same,% inhibition,[22],60.9%
same,% inhibition,[23],36.4%
same,% inhibition,[24],52.4%
same,% inhibition,[25],52.5%
same,% inhibition,[26],74.3%
same,% inhibition,[27],40.8%
same,% inhibition,[28],80.8 ± 8.9%
same,drug sensitivity score,[29],3.45 ± 0.18
same,drug sensitivity score,[30],1.75
same,drug sensitivity score,[31],3.48
same,drug sensitivity score,[32],1.74
same,drug sensitivity score,[33],4.65
same,drug sensitivity score,[34],3.1
same,drug sensitivity score,[35],3.88
same,drug sensitivity score,[36],1.84
same,drug sensitivity score,[37],4.36 ± 0.37
